Test results as given in the supplement of paper PMC10307832.

What was measured:
Assay in all cases: relative viability (nuclei count vs DMSO), 5 days (fraction); higher = more cells survive
201T = test system: 201T
In short: (§1)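 Five library-drug doses in √10 steps were combined with a fixed anchor-drug dose, or a single drug was given alone, by pin tool to lung cancer cell lines in 1536-well plates the day after seeding. Nuclei were stained and counted after 5 days. Relative viability is the nuclei count in treated wells over that in vehicle wells, taken as the median of duplicate plates.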

A-427 = test system: A-427
In short: as §1

COR-L 105 = test system: COR-L 105
In short: as §1

COR-L23 = test system: COR-L23
In short: as §1

EKVX = test system: EKVX
In short: as §1

HARA = test system: HARA
In short: as §1

HCC-15 = test system: HCC-15
In short: as §1

HCC-44 = test system: HCC-44
In short: as §1

HCC-827 = test system: HCC-827
In short: as §1

LCLC-103H = test system: LCLC-103H
In short: as §1

LK-2 = test system: LK-2
In short: as §1

NCI-H1437 = test system: NCI-H1437
In short: as §1

NCI-H1666 = test system: NCI-H1666
In short: as §1

NCI-H1792 = test system: NCI-H1792
In short: as §1

NCI-H1975 = test system: NCI-H1975
In short: as §1

NCI-H23 = test system: NCI-H23
In short: as §1

NCI-H441 = test system: NCI-H441
In short: as §1

NCI-H520 = test system: NCI-H520
In short: as §1

NCI-H522 = test system: NCI-H522
In short: as §1

NCI-H596 = test system: NCI-H596
In short: as §1

NCI-H650 = test system: NCI-H650
In short: as §1

NCI-H838 = test system: NCI-H838
In short: as §1

SK-MES-1 = test system: SK-MES-1
In short: as §1

SW 900 = test system: SW 900
In short: as §1

Q: What does the source list for CC(C)Oc1cc(Nc2nc(N[C@@H](C)c3ccc(F)cn3)ncc2Cl)n[nH]1 [AZ23] + Nc1nc2[nH]cc(CCc3ccc(C(=O)N[C@@H](CCC(=O)O)C(=O)O)cc3)c2c(=O)[nH]1 [Pemetrexed] (partner 0.2 µM)?
A: relative viability (201T; first compound 0.01 µM): 0.251; relative viability (201T; first compound 0.03162 µM): 0.348; relative viability (201T; first compound 0.3162 µM): 0.336; relative viability (A-427; first compound 0.01 µM): 0.797; relative viability (A-427; first compound 0.03162 µM): 1.01; relative viability (A-427; first compound 0.3162 µM): 1.15; relative viability (COR-L 105; first compound 0.01 µM): 0.902; relative viability (COR-L 105; first compound 0.03162 µM): 1.24; relative viability (COR-L 105; first compound 0.3162 µM): 1.1; relative viability (COR-L23; first compound 0.01 µM): 0.172; relative viability (COR-L23; first compound 0.03162 µM): 0.193; relative viability (COR-L23; first compound 0.3162 µM): 0.189; relative viability (EKVX; first compound 0.01 µM): 0.24; relative viability (EKVX; first compound 0.03162 µM): 0.5; relative viability (EKVX; first compound 0.3162 µM): 0.381; relative viability (HARA; first compound 0.01 µM): 0.147; relative viability (HARA; first compound 0.03162 µM): 0.309; relative viability (HARA; first compound 0.3162 µM): 0.281; relative viability (HCC-15; first compound 0.01 µM): 0.204; relative viability (HCC-15; first compound 0.03162 µM): 0.222; relative viability (HCC-15; first compound 0.3162 µM): 0.208; relative viability (HCC-44; first compound 0.01 µM): 0.373; relative viability (HCC-44; first compound 0.03162 µM): 0.66; relative viability (HCC-44; first compound 0.3162 µM): 0.698; relative viability (HCC-827; first compound 0.01 µM): 0.2; relative viability (HCC-827; first compound 0.03162 µM): 0.27; relative viability (HCC-827; first compound 0.3162 µM): 0.242; relative viability (LCLC-103H; first compound 0.01 µM): 0.448; relative viability (LCLC-103H; first compound 0.03162 µM): 0.433; relative viability (LCLC-103H; first compound 0.3162 µM): 0.466; relative viability (LK-2; first compound 0.03162 µM): 0.36; relative viability (LK-2; first compound 0.3162 µM): 0.263; relative viability (NCI-H1437; first compound 0.01 µM): 0.283; relative viability (NCI-H1437; first compound 0.03162 µM): 0.345; relative viability (NCI-H1437; first compound 0.3162 µM): 0.331; relative viability (NCI-H1666; first compound 0.01 µM): 0.822; relative viability (NCI-H1666; first compound 0.03162 µM): 0.837; relative viability (NCI-H1666; first compound 0.3162 µM): 0.771; relative viability (NCI-H1792; first compound 0.01 µM): 0.813; relative viability (NCI-H1792; first compound 0.03162 µM): 0.912; relative viability (NCI-H1792; first compound 0.3162 µM): 1; relative viability (NCI-H1975; first compound 0.01 µM): 0.272; relative viability (NCI-H1975; first compound 0.03162 µM): 0.296; relative viability (NCI-H1975; first compound 0.3162 µM): 0.312; relative viability (NCI-H23; first compound 0.03162 µM): 0.77; relative viability (NCI-H23; first compound 0.3162 µM): 0.992; relative viability (NCI-H441; first compound 0.01 µM): 0.262; relative viability (NCI-H441; first compound 0.03162 µM): 0.242; relative viability (NCI-H441; first compound 0.3162 µM): 0.267; relative viability (NCI-H520; first compound 0.01 µM): 0.678; relative viability (NCI-H520; first compound 0.03162 µM): 0.759; relative viability (NCI-H520; first compound 0.3162 µM): 0.615; relative viability (NCI-H522; first compound 0.01 µM): 1; relative viability (NCI-H522; first compound 0.03162 µM): 1; relative viability (NCI-H522; first compound 0.3162 µM): 1.11; relative viability (NCI-H596; first compound 0.01 µM): 0.422; relative viability (NCI-H596; first compound 0.03162 µM): 0.55; relative viability (NCI-H596; first compound 0.3162 µM): 0.509; relative viability (NCI-H650; first compound 0.01 µM): 0.936; relative viability (NCI-H650; first compound 0.03162 µM): 0.969; relative viability (NCI-H650; first compound 0.3162 µM): 0.888; relative viability (NCI-H838; first compound 0.01 µM): 0.207; relative viability (NCI-H838; first compound 0.03162 µM): 0.27; relative viability (NCI-H838; first compound 0.3162 µM): 0.243; relative viability (SK-MES-1; first compound 0.03162 µM): 1.03; relative viability (SK-MES-1; first compound 0.3162 µM): 1.03; relative viability (SW 900; first compound 0.01 µM): 0.491; relative viability (SW 900; first compound 0.3162 µM): 0.514
